The results in this text go back to patent publication US9446087B2, “Anti-resorptive and bone building dietary supplements and methods of use” (priority 2006, dated 2016).

Marks after values point to notes of the source that are not given here.

Assay [1] concerns ovariectomized (OVX) rat model. The assay is described as follows: In vivo ovariectomized (OVX) rat study - micro-CT measurement. As to conditions: OVX rats, 35 days, positive control 0.5 mg/day; vs placebo group.
Procedure: Two different formulas were tested in an in vivo study involving female, intact rats, aged approximately 12-14 weeks, with approximate body weights between 200-250 grams. Formula 2 included varying dosages of pomegranate extract and grape seed extract and a fixed dosage of ipriflavone as reported in Table 18. Three dosages were tested for each formula. The study utilized 8 groups of rats, with 15 rats in each group and lasted approximately 35 days.
To introduce rapid bone resorption caused by estrogen withdrawal, the ovariectomized (OVX) rat model was used in this study. […] It was important to evaluate the effect of bone resorption caused by the ovariectomy procedure so a Sham control (n=6), a group of female rats without undergoing the ovariectomy procedure, was also included in the study.
This study employed a randomized placebo controlled dose response design. A total of 120 ovariectomized rats (n=15 per group) aged ˜12-14 weeks, with body weights of approximately 200-250 grams were randomly assigned to groups for 35 days. Animals were fed at 15 grams/day, which included either a placebo diet or one of the formulas listed above, for a period of 35 days from the beginning of the experiment. […]
Assay [2] has as its system ovariectomized (OVX) rat model. Description: In vivo ovariectomized (OVX) rat study - histomorphology measurement. As to conditions: OVX rats, 35 days, positive control 0.5 mg/day; vs placebo group. As to the method:
(§1) Two different formulas were tested in an in vivo study involving female, […] rats, aged approximately 12-14 weeks, with approximate body weights between 200-250 grams. Formula 2 included varying dosages of pomegranate extract and grape seed extract and a fixed dosage of ipriflavone as reported in Table 18. Three dosages were tested for each formula. The study utilized 8 groups of rats, with 15 rats in each group and lasted approximately 35 days.
Table 18 below indicates the formula given to each of the 8 test groups. […]
The effectiveness of the formulas on antiresorption was assessed by outcome measurements that included DEXA scan (to determine bone mineral density), biomechanical measurement (to gather bone strength and functional information), micro-CT measurement (to assess virtual bone quality and functional information), and histomorphology measurement (to assess bone quality and functional information). […] These measurements were determined after 35 days of treatment.
Histomorphology measurement was also used as a tool to determine the efficacy of formulas 1 and 2 where trabecular bone volume from each group was quantified. […]

Assay [3] relates to ovariectomized (OVX) rat model. The assay is described as follows: In vivo ovariectomized (OVX) rat study - biomechanical measurements. As to conditions: OVX rats, 35 days, positive control 0.5 mg/day; vs placebo group. As to the method: as §1
Table 18 below indicates the formula given to each of the 8 test groups. The dosages in Table 18 are based on the recommended human dosages and were converted to the appropriate corresponding rat dose using the FDA conversion formula: Human equivalent dose (HED, mg/kg)=rat dose in mg/kg×(rat weight in kg/human weight in kg)^0.33 HED=rat NOAEL×(W-rat/W-human)^(1-b), b=0.67. […]
The effectiveness of the formulas on antiresorption was assessed by outcome measurements that included DEXA scan (to determine bone mineral density), biomechanical measurement (to gather bone strength and functional information), micro-CT measurement (to assess virtual bone quality and functional information), and histomorphology measurement (to assess bone quality and functional information). […] These measurements were determined after 35 days of treatment. […]

The test system of assay [4] is calvaria (skull bones) from 4 day old pups. Description: Calvarial Assay to Measure Inhibition of Bone Resorption (45Ca release). Type of assay: cell-based, CD-1 mice. The conditions noted are these: positive control. As to the method:
In order to label cells of newborn mice in utero, pregnant CD-1 female mice (at timed day 15) were injected with ^45Ca (25 uCi/mouse). […] The bones were incubated at 37° C. in a 5% CO2 humidified incubator for a period of 24 hours following which they were transferred to wells containing 1 ml media with factors added (IL-1, PTH and or compounds.) The treated bones were incubated under the above conditions for a further 72 hours. […] The results were expressed as % ^45Ca release and can be further reported as T/C ratios. For some factors and compounds, modification of this procedure can be used. As most of the osteoclasts are formed in the calvaria following the preincubation period, the factors that affect osteoclast formation may have a greater effect during the preincubation period. Thus, for a number of the compounds, they were included in the preincubation media.

For the compound `NCCCC(O)(P(=O)(O)O)P(=O)(O)O` [Alendronate], in assay [1], the “% Bone Volume/ Total Volume” value worked out at 632%^a, the “Trabecular Number (N/6 mm^3)” value worked out at 313%^a and the “Trabecular Separation” value was −88%^a. The “% Bone Volume” value in assay [2] was found to be 214.1%^a. Further, in assay [3], the “Bone Stiffness” value was determined as 0.2% and the “Maximum Force Required to Fracture Bones” value is reported as −0.4%. The “Inhibition of Bone Resorption/Release of Calcium By Combinations of Extracts, % Release” value in assay [4] (IL-1 + 0.1 μM) worked out at 28.50 ± 1.19 % Release. The “Inhibition of Bone Resorption/Release of Calcium By Combinations of Extracts, % Release” value in assay [4] (IL-1 + 1 μM) is given as 17.00 ± 1.15^a % Release. In addition, the “Inhibition of Bone Resorption/Release of Calcium By Combinations of Extracts, % Release” value in assay [4] (IL-1 + 10 μM) is listed as 14.07 ± 1.05^a % Release. Further, the “Inhibition of Bone Resorption/Release of Calcium By Combinations of Extracts, % Release” value in assay [4] (IL-1 + 100 μM) is recorded as 12.00 ± 0.17^a % Release.
